Source: patent US20130035329A1, “THERAPEUTICALLY ACTIVE COMPOSITIONS AND THEIR METHODS OF USE” (priority 2009, published 2013)

Target: IDH1 R132H (Homo sapiens, UniProt O75874, R132H)
Assay: High Throughput Screening (HTS) for IDH1 R132H inhibitors (resazurin/NADPH fluorescence assay)
Format: biochemical
Conditions: IDH1m; assay similar to Example 1; class symbols
Procedure: A compound described herein may be an inhibitor of IDH1m. […] B refers to an inhibitor of IDH1m with an IC50 between 1 μM and 50 μM. C refers to an inhibitor of IDH1m with an IC50 greater than 50 μM. D refers to a compound wherein an IC50 is not available.
Assays were conducted in a volume of 76 μl assay buffer (150 mM NaCl, 10 mM MgCl2, 20 mM Tris pH 7.5, 0.03% bovine serum albumin) as follows in a standard 384-well plate: To 25 ul of substrate mix (8 uM NADPH, 2 mM aKG), 1 μl of test compound was added in DMSO. The plate was centrifuged briefly, and then 25 μl of enzyme mix was added (0.2 μg/ml ICDH1 R132H) followed by a brief centrifugation and shake at 100 RPM. The reaction was incubated for 50 minutes at room temperature, then 25 μl of detection mix (30 μM resazurin, […]) was added and the mixture further incubated for 5 minutes at room temperature. The conversion of resazurin to resorufine was detected by fluorescent spectroscopy at Ex544 Em590 c/o 590.

Sequence of IDH1 R132H (O75874 whole entry R132H): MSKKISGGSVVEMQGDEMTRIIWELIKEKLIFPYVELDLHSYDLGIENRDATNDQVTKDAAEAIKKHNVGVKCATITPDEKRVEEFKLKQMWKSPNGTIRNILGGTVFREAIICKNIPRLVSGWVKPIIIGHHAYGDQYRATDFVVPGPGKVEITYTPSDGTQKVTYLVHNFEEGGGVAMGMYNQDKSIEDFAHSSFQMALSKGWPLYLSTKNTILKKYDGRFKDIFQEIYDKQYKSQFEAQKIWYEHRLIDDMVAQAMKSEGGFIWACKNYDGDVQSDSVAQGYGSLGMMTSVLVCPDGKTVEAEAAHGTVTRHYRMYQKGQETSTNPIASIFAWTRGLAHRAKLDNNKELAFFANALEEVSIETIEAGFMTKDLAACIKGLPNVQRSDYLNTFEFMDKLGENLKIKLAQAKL

IC50 [µM]	Compound
1 to 50	COc1ccccc1N1CCN(C(=O)c2cccc(S(=O)(=O)Nc3ccc(C(C)(C)C)cc3)c2)CC1
1 to 50	CCCCc1ccc(NS(=O)(=O)c2cccc(C(=O)N3CCN(c4ccncc4)CC3)c2)cc1
1 to 50	COc1ccccc1N1CCN(C(=O)c2cc(S(=O)(=O)Nc3ccc(OC(C)C)cc3)ccc2C)CC1
1 to 50	COc1ccccc1N1CCN(C(=O)c2cc(S(=O)(=O)Nc3ccc(C(C)(C)C)cc3)ccc2C)CC1
1 to 50	CCOc1ccc(NS(=O)(=O)c2ccc(C)c(C(=O)N3CCN(c4ccccc4OC)CC3)c2)cc1
1 to 50	CCCCc1ccc(NS(=O)(=O)c2cccc(C(=O)N3CCN(c4ccnc5[nH]ccc45)CC3)c2)cc1
1 to 50	CCCCc1ccc(NS(=O)(=O)c2ccc(C)c(C(=O)N3CCN(c4ccccc4F)CC3)c2)cc1
< 1	CCCCc1ccc(NS(=O)(=O)c2ccc(C)c(C(=O)N3CCN(c4ccccc4C)CC3)c2)cc1
1 to 50	CCCCc1ccc(NS(=O)(=O)c2ccc(C)c(C(=O)N3CCN(C(=O)c4ccccc4)CC3)c2)cc1
1 to 50	CCCCc1ccc(NS(=O)(=O)c2ccc(C)c(C(=O)N3CCN(C(=O)Cc4ccccc4)CC3)c2)cc1
1 to 50	CCCCc1ccc(NS(=O)(=O)c2ccc(C)c(C(=O)N3CCN(CC(C)c4ccccc4)CC3)c2)cc1 (stereo not drawn)
1 to 50	CCCCc1ccc(NS(=O)(=O)c2ccc(C)c(C(=O)N3CCN(Cc4ccccc4CC)CC3)c2)cc1
1 to 50	CCCCc1ccc(NS(=O)(=O)c2ccc(C)c(C(=O)N3CCN(CCc4ccccc4)CC3)c2)cc1
1 to 50	CCCCc1ccc(NS(=O)(=O)c2ccc(C)c(C(=O)N3CCN(C(C)c4ccccc4)CC3)c2)cc1 (stereo not drawn)
1 to 50	CCCCc1ccc(NS(=O)(=O)c2ccc(C)c(C(=O)N3CCN(C(=O)OCc4ccccc4)CC3)c2)cc1
1 to 50	CCCCc1ccc(NS(=O)(=O)c2ccc(C)c(C(=O)N3CCN(C(=O)Oc4ccccc4)CC3)c2)cc1
1 to 50	CCCCc1ccc(NS(=O)(=O)c2ccc(C)c(C(=O)N3CCN(C(=O)OCC(C)C)CC3)c2)cc1
1 to 50	CCCCc1ccc(NS(=O)(=O)c2ccc(C)c(C(=O)N3CCN(C(=O)OC(C)C)CC3)c2)cc1
< 1	CCCCc1ccc(NS(=O)(=O)c2ccc(C)c(C(=O)N3CCN(c4ccccc4CC)CC3)c2)cc1
1 to 50	CCCCc1ccc(NS(=O)(=O)c2ccc(C)c(C(=O)N3CCN(c4ccc(Cl)cc4)CC3)c2)cc1
1 to 50	CCCCc1ccc(NS(=O)(=O)c2ccc(C)c(C(=O)N3CCN(c4ccc(OCCC)cc4)CC3)c2)cc1

IC50 [µM]	Compound
1 to 50	CCCCc1ccc(NS(=O)(=O)c2ccc(C)c(C(=O)N3CCCN(c4ccccc4F)CC3)c2)cc1
1 to 50	CCCCc1ccc(NS(=O)(=O)c2ccc(C)c(C(=O)N3CCCN(c4ccccc4C)CC3)c2)cc1
1 to 50	CCCCc1ccc(NS(=O)(=O)c2ccc(C)c(C(=O)N3CCN(c4ccccc4OCC)CC3)c2)cc1
1 to 50	COc1ccccc1N1CCN(C(=O)c2cc(S(=O)(=O)Nc3ccc(OCc4nnco4)cc3)ccc2C)CC1
1 to 50	CCCCc1ccc(NS(=O)(=O)c2ccc(C)c(C(=O)N3CCN(c4ccccc4OC(C)C)CC3)c2)cc1
1 to 50	CCCCc1ccc(NS(=O)(=O)c2ccc(C)c(C(=O)N3CCN(c4ccccc4OCC4CC4)CC3)c2)cc1
1 to 50	CCCCc1ccc(NS(=O)(=O)c2ccc(C)c(C(=O)N3CCN(c4ccccc4OCCC)CC3)c2)cc1
1 to 50	CCCCc1ccc(NS(=O)(=O)c2ccc(C)c(C(=O)N3CCN(c4cccc(Cl)c4)CC3)c2)cc1
1 to 50	CCCCc1ccc(NS(=O)(=O)c2ccc(C)c(C(=O)N3CCN(c4ccc(OC)cc4OC)CC3)c2)cc1
1 to 50	CCCCc1ccc(NS(=O)(=O)c2ccc(C)c(C(=O)N3CCN(c4ccc(OC)cc4O)CC3)c2)cc1
1 to 50	CCCCc1ccc(NS(=O)(=O)c2ccc(C)c(C(=O)N3CCN(c4ccccc4OCCc4ccccc4)CC3)c2)cc1
1 to 50	CCCCc1ccc(NS(=O)(=O)c2ccc(C)c(C(=O)N3CCN(c4ccccc4OCC(C)C)CC3)c2)cc1
1 to 50	COC(=O)C(C)Nc1ccc(NS(=O)(=O)c2ccc(C)c(C(=O)N3CCN(c4ccccc4OC)CC3)c2)cc1 (stereo not drawn)
1 to 50	CCCCc1ccc(NS(=O)(=O)c2ccc(C)c(C(=O)N3CCN(c4ccc(OC)c(OC)c4)CC3)c2)cc1
1 to 50	CCCCc1ccc(NS(=O)(=O)c2ccc(Br)c(C(=O)N3CCN(c4ccccc4OC)CC3)c2)cc1
1 to 50	COCOc1ccc(NS(=O)(=O)c2ccc(C)c(C(=O)N3CCN(c4ccccc4C)CC3)c2)cc1
1 to 50	COCCOCOc1ccc(NS(=O)(=O)c2ccc(C)c(C(=O)N3CCN(c4ccccc4C)CC3)c2)cc1
1 to 50	CCCCc1ccc(NS(=O)(=O)c2ccc(C)c(C(=O)N3CCN(c4c(C)cccc4C)CC3)c2)cc1
1 to 50	CCCCc1ccc(NS(=O)(=O)c2ccc(C)c(C(=O)N3CCN(c4ccccc4OC)CC3)c2)c(N(C)C)c1
1 to 50	CCCCc1ccc(NS(=O)(=O)c2cc3c(c(C(=O)N4CCN(c5ccccc5OC)CC4)c2)OCCN3)cc1
1 to 50	C=Cc1ccc(S(=O)(=O)Nc2ccc(CCCC)cc2)cc1C(=O)N1CCN(c2ccccc2OC)CC1

IC50 [µM]	Compound
1 to 50	C#CCc1ccc(S(=O)(=O)Nc2ccc(CCCC)cc2)cc1C(=O)N1CCN(c2ccccc2OC)CC1
1 to 50	COc1ccccc1N1CCN(C(=O)c2cc(S(=O)(=O)Nc3ccc(C)c4cc[nH]c34)ccc2C)CC1
> 50	COc1ccccc1N1CCN(C(=O)c2cccc(S(=O)(=O)Nc3ccccc3)c2)CC1
> 50	O=C(c1cccc(S(=O)(=O)Nc2ccc(Cl)cc2)c1)N1CCN(c2ccccc2)CC1
> 50	COc1ccccc1NS(=O)(=O)c1cccc(C(=O)N2CCN(c3ccccc3)CC2)c1
> 50	COc1ccccc1NS(=O)(=O)c1cccc(C(=O)N2CCN(c3ccccc3OC)CC2)c1
> 50	COc1ccccc1N1CCCN(C(=O)c2cccc(S(=O)(=O)Nc3ccc(Cl)cc3)c2)CC1
> 50	Cc1ccc(NS(=O)(=O)c2cccc(C(=O)N3CCN(c4ccccc4)CC3)c2)cc1
> 50	O=C(c1cccc(S(=O)(=O)Nc2ccccc2F)c1)N1CCN(c2ccccn2)CC1
1 to 50	COc1ccccc1N1CCCN(C(=O)c2cccc(S(=O)(=O)Nc3ccccc3F)c2)CC1
> 50	COc1ccccc1N1CCN(C(=O)c2cc(S(=O)(=O)Nc3ccccc3)ccc2C)CC1
> 50	COc1ccc(NS(=O)(=O)c2cccc(C(=O)N3CCCN(c4ccccc4OC)CC3)c2)cc1
> 50	Cc1cc(F)ccc1NS(=O)(=O)c1cccc(C(=O)N2CCN(c3ccccc3)CC2)c1
> 50	Cc1ccc(S(=O)(=O)Nc2ccccc2F)cc1C(=O)N1CCN(c2ccccn2)CC1
> 50	COc1ccccc1N1CCCN(C(=O)c2cccc(S(=O)(=O)Nc3ccc(C)cc3)c2)CC1
> 50	COc1ccccc1N1CCN(C(=O)c2cc(S(=O)(=O)Nc3ccccc3F)ccc2C)CC1
> 50	COc1ccc(NS(=O)(=O)c2ccc(C)c(C(=O)N3CCN(c4ccccn4)CC3)c2)cc1
> 50	CCCCc1ccc(NS(=O)(=O)c2ccc(Cl)c(C(=O)N3CCN(C(C)=O)CC3)c2)cc1
> 50	COc1ccccc1N1CCN(C(=O)c2cc(S(=O)(=O)Nc3ccc(CCN4CCCC4)cc3)ccc2C)CC1
1 to 50	CCCCc1ccc(C(=O)Nc2cccc(C(=O)N3CCN(c4ccccc4OC)CC3)c2)cc1

Compound	IC50 [µM]
CCCCc1ccc(OC(=O)Nc2cccc(C(=O)N3CCN(c4ccccc4OC)CC3)c2)cc1	> 50
